Source: US8877463B2, “Rhodanobacter ginsenosidimutans KCTC22231T-derived ginsenoside glycosidase, and use thereof” (Korea Research Institute of Bioscience and Biotechnology, priority 2009, dated 2014)

B1: Bgl3054: Rhodanobacter ginsenosidimutans KCTC22231T-derived ginsenoside glycosidase protein, 433 amino acids, SEQ ID NO. 2 (protein)
chain: GLGRRRASMMRGTPMTNPFPQDFLWGVATAGHQVEGNNVNSDVWFLEHLPGTIFAEPSGDAVDHYHRYREDIALIAGLGFTSYRFSVEWARIEPEEGHFSVAALDHYKRVLEACREHGLTPVVTFHHFASPLWLLRSGGWEGERTPELFARYCGRVMAHLGDLIGVACTLNEPNLPWLLESFGIGGEAPENRGKVPMWAAAAQRLGVDASTVAPFQFCSTEAGFNVKLAAHKAATEAIKAHRPDLRVGWTLANSDIQSVPGGEEIAAQVRRDVNERFLEASRGDDFVGIQTYGRTVYGPDGHAPAPEGVAVNQMGEEIYPQALEATIREAWRVAGIPVMVTENGLATEDDTQRVAYLRTAVDGVASCLADGIDVRGYIAWTAFDNFEWIFGYGPKFGLIAVDRSTQERTPKESARWLGNFARQQAPAEAPQPA
modifications: Bgl3054

Columns and labels:
[1] = system: ginsenoside glycosidase Bgl3054; test: Reaction of expressed ginsenoside glycosidase with Rb1 solution, TLC analysis; format: biochemical, Rhodanobacter ginsenosidimutans KCTC22231T; conditions: 1 mg/ml Rb1 solution in 50 mM sodium phosphate
Protocol: E.coil C41 (DE3) containing overexpressed plasmid was cultured in LB-ampicillin media at 37° C. when the OD value at 600 nm reached 0.6, and treated with 0.5 mM isopropyl-β-D-thiogalactopyranoside for 12 hours to induce protein expression. The bacterial cells were obtained by centrifugation at 4° C. and 5,000×g for 20 minutes. The cell pellet was resuspended in a solution (suspension) consisting of 50 mM sodium phosphate, 5 mM EDTA, and 1% Triton X-100 (pH 7.0) and subjected to ultrasonification. Ginsenoside glycosidase was completely hydrated without formation of insoluble precipitate, and ginsenoside glycosidase was reacted with 1 mg/ml Rb1 solution in 50 mM sodium phosphate, and TLC analysis was performed.

[2] = system: Bgl3054 ginsenoside glycosidase; test: Specificity and selectivity of the enzyme for hydrolysis of ginsenosides (TLC, HPLC, NMR); format: biochemical, Rhodanobacter ginsenosidimutans KCTC22231T; conditions: 0.2U enzyme, 50 mM sodium phosphate buffer pH 7.0, 0.1% (w/v) substrate, 37° C.
Protocol: In order to analyze the specificity and selectivity of the enzyme for the hydrolysis of glucose at the C-3 and C-20 positions of ginsenoside, ginsenoside Rb1, Rb2, Rc, Rd, and Rg3 were used as the substrates. Each reaction mixture containing 0.2U enzyme, 50 mM sodium phosphate buffer 0.1% (w/v) (pH 7.0), and the substrate was incubated at 37° C. Each sample was withdrawn at regular intervals, and an equal volume of water-saturated butanol was added to stop the reaction. The n-butanol fraction was evaporated to dryness, and residual material was dissolved in CH3OH and then examined by TLC HPLC or NMR analysis, and the results are shown in FIGS. 10, 11 and 12.

Bgl3054 = test: Substrate preference with chromogenic ONP and PNP substrates; format: biochemical, Rhodanobacter ginsenosidimutans KCTC22231T; conditions: 2.0 mM substrate, 37° C., 5 minutes; for activity of Bgl3054 for the substrate, rank order after ONP-β-D-fucopyranoside: descending order as listed: PNP-fucopyranoside, oNP-glucopyranoside, ONP-galactopyranoside, PNP-glucopyranoside, PNP-arabinopyranoside, PNP-galactopyranoside
Protocol: A free PNP-type substrate has a yellow color, but turns colorless when it binds with various sugars. The characteristics of glucosidase-type enzymes were analyzed using this principle. For example, PNPGlc is a colorless compound prepared by beta linkage of PNP and glucose, but free PNP catalyzed by beta-glucosidase has a yellow color. Thus, when a color change occurs by use of PNPGlc as a substrate, the enzyme is determined as a beta-glucosidase. In addition, when PNP-β-D-galactopyranoside is metabolized by an enzyme to produce yellow color, it is determined as β-D-galactopyranosidase. The color becomes darker according to characteristics and concentrations of the substrate, and thus it is possible to measure the concentration of the enzyme using a spectrometer.
1 activity unit was defined as the release of o-nitrophenol or p-nitrophenol per minute. For analysis of substrate preference, 2.0 mM chromogenic ONP and PNP (p-nitrophenyl) were used as the substrates, and incubated in 50 mM sodium phosphate buffer at 37° C. for 5 minutes.
The analyzed substrates (Sigma) were PNP-β-D-glucopyranoside, PNP-β-D-galactopyranoside, PNP-β-D-fucopyranoside, PNP-N-acetyl-β-D-glucosaminide, PNP-β-L-arabinopyranoside, PNP-β-D-mannopyronoside, PNP-β-D-xylopyranoside, PNP-β-D-glucopyranoside, PNP-β-L-arabinofuranoside, PNP-β-L-arabinopyranoside, PNP-β-D-rhamnopyranoside, PNP-β-D-mannopyranoside, and PNP-β-D-xylopyranoside, and o-nitrophenol[ONP]-β-D-glucopyranoside, ONP-β-D-galactopyranoside, ONP-β-D-fucopyranoside, and ONP-β-D-galactopyranoside.

[3] = target: ginsenoside glycosidase (Bgl3054) (Microbacterium sp. Gsoil167, UniProt L0ELG0); test: Metal and chemical agent effects on enzymatic activity; format: biochemical, Rhodanobacter ginsenosidimutans KCTC22231T; conditions: at the concentration of 10 mM or more; room temperature 30 minutes; pNPGlc substrate
Protocol: Specific activity was measured using 90 μl of 50 mM sodium phosphate buffer containing 2.0 mM pNPGlc (p-nitrophenyl-β-D-glucopyranoside; Sigma) at pH 7.0, and 10 μl of the diluted purified enzyme was treated at 37° C. for 20 minutes before initiation of the reaction, followed by incubation. 0.1 ml of 1 M Na2CO3 was treated for 5 minutes to terminate the reaction, and the concentration of p-nitrophenol was immediately measured at 405 nm. One unit of activity was defined as the amount of enzyme that released 1 μmol of p-nitrophenol per minute. Specific activity is expressed in units per milligram protein. Protein concentration was measured using a Bio-Rad protein staining reagent according to the protocol. All analyses were performed at least three times.
Ginsenoside glycosidase was incubated at room temperature for 30 minutes in 1 mM and 10 mM (final concentration) of ZnCl2, MnCl2, CaCl2, CoCl2, MgCl2, EDTA, NaCl, KCl, CuCl2, DTT, SDS, and mercaptoethanol, and pNPGlc (p-nitrophenyl-β-D-glucopyranoside; Sigma) was used as a substrate to measure the activity. The resulting value was represented as a percentage to the obtained activity upon lack of the compounds, and is shown in Table 1.

[4] = system: ginsenoside glycosidase (Bgl3054); test: Kinetic studies of pNPGlc hydrolysis (Km, Vmax); format: biochemical, Rhodanobacter ginsenosidimutans KCTC22231T; conditions: pNPGlc 0.1 mM to 0.6 mM, 37° C., 20 minutes, absorbance 405 nm
Protocol: Further, kinetic studies were performed with freshly purified enzyme using pNPGlc (p-nitrophenyl-β-D-glucopyranoside; Sigma) at the concentrations of from 0.1 mM to 0.6 mM. Its absorbance at 405 nm was monitored at 37° C. for 20 minutes. The resulting data were used to determine Km and Vmax using the Enzyme Kinetics Program reported by Cleland.
Km and Vmax for the hydrolysis of pNPGlc (p-nitrophenyl-β-D-glucopyranoside; Sigma) by ginsenoside glycosidase were calculated using the Enzyme Kinetics Program reported by Cleland.

[5] = format: biochemical; conditions: 2.0 mM pNPGlc, 50 mM buffers
Protocol: The effect of pH on the enzymatic activity was measured. 2.0 mM pNPGlc (p-nitrophenyl-β-D-glucopyranoside; Sigma) was used as a substrate, and pH was adjusted using the following buffer (50 mM).
pH range of 2 to 10: KCl-HCl (pH 2), glycine-HCl (pH 3), sodium acetic acid (pH 4 and 5), sodium phosphate (pH 6 and 7), Tris-HCl (pH 8 and 9) and glycine-sodium hydroxide (pH 10) Further, the effect of pH on the enzymatic stability was measured. The enzyme was incubated in each of the above mentioned buffers at 4° C. for 24 hours, and then pHPGlc was analyzed in 50 mM potassium buffer to measure the enzymatic stability according to pH change. Residue activity was analyzed according to a standard analytical procedure, and the results are shown in FIG. 6 as an activity probability obtained at the optimum pH.

[6] = format: biochemical; conditions: 4-90° C., 2.0 mM pNPGlc, 50 mM potassium phosphate buffer, optimum pH, 5 minutes
Protocol: The effect of temperature on the enzymatic activity was measured. The temperature was adjusted between 4-90° C., and 2.0 mM pNPGlc (p-nitrophenyl-β-D-glucopyranoside; Sigma) was used to analyze the temperature-dependent activity in the 50 mM potassium phosphate buffer at the optimum pH for 5 minutes.
Further, the equivalent amount of enzyme was incubated in 50 mM potassium phosphate buffer within the same temperature range for 30 minutes to analyze the temperature stability. The sample was cooled in ice for 10 minutes, and the residual activity was measured according to a standard analytical procedure, and the results are shown in FIG. 7.

Molecule	bioconversion of the ginsenoside substrate by the enzyme [2]	activity of Bgl3054 for the substrate, rank order after ONP-β-D-fucopyranoside (Bgl3054)	other results
CC(C)=CCC[C@](C)(O[C@@H]1O[C@H](CO[C@@H]2O[C@H](CO)[C@@H](O)[C@H](O)[C@H]2O)[C@@H](O)[C@H](O)[C@H]1O)[C@H]1CC[C@]2(C)[C@@H]1[C@H](O)C[C@@H]1[C@@]3(C)CC[C@H](O[C@@H]4O[C@H](CO)[C@@H](O)[C@H](O)[C@H]4O[C@@H]4O[C@H](CO)[C@@H](O)[C@H](O)[C@H]4O)C(C)(C)[C@@H]3CC[C@]12C [Ginsenoside Rb1, ginsenoside Rb1]	converted into Rd	–	conversion of ginsenoside by Bgl3054 (TLC) [1]: into F2 via Rd
CC(C)=CCC[C@](C)(O[C@@H]1O[C@H](CO[C@@H]2O[C@@H](CO)[C@H](O)[C@H]2O)[C@@H](O)[C@H](O)[C@H]1O)[C@H]1CC[C@]2(C)[C@@H]1[C@H](O)C[C@@H]1[C@@]3(C)CC[C@H](O[C@@H]4O[C@H](CO)[C@@H](O)[C@H](O)[C@H]4O[C@@H]4O[C@H](CO)[C@@H](O)[C@H](O)[C@H]4O)C(C)(C)[C@@H]3CC[C@]12C [Ginsenoside Rc, ginsenoside Rc]	converted into compound Mc1	–	–
C[C@H]1O[C@@H](Oc2ccccc2[N+](=O)[O-])[C@H](O)[C@@H](O)[C@H]1O [ONP-β-D-fucopyranoside]	–	–	activity of Bgl3054 for the substrate (substrate preference) (Bgl3054; 50 mM sodium phosphate buffer): highest activity
O=[N+]([O-])c1ccccc1O[C@@H]1O[C@H](CO)[C@H](O)[C@H](O)[C@H]1O [ONP-β-D-galactopyranoside]	–	higher activity in this order	–
C[C@H]1O[C@@H](Oc2ccc([N+](=O)[O-])cc2)[C@H](O)[C@@H](O)[C@H]1O [PNP-β-D-fucopyranoside]	–	higher activity in this order	–
O=[N+]([O-])c1ccc(O[C@@H]2O[C@H](CO)[C@H](O)[C@H](O)[C@H]2O)cc1 [PNP-β-D-galactopyranoside]	–	higher activity in this order	–
O=[N+]([O-])c1ccc(O[C@H]2OC[C@H](O)[C@H](O)[C@H]2O)cc1 [PNP-β-L-arabinopyranoside]	–	higher activity in this order	–
CC(C)=CCC[C@](C)(O[C@@H]1O[C@H](CO[C@@H]2OC[C@H](O)[C@H](O)[C@H]2O)[C@@H](O)[C@H](O)[C@H]1O)[C@H]1CC[C@]2(C)[C@@H]1[C@H](O)C[C@@H]1[C@@]3(C)CC[C@H](O[C@@H]4O[C@H](CO)[C@@H](O)[C@H](O)[C@H]4O[C@@H]4O[C@H](CO)[C@@H](O)[C@H](O)[C@H]4O)C(C)(C)[C@@H]3CC[C@]12C [Rb2, ginsenoside Rb2]	converted into Rd	–	–
CC(C)=CCC[C@](C)(O[C@@H]1O[C@H](CO)[C@@H](O)[C@H](O)[C@H]1O)[C@H]1CC[C@]2(C)[C@@H]1[C@H](O)C[C@@H]1[C@@]3(C)CC[C@H](O[C@@H]4O[C@H](CO)[C@@H](O)[C@H](O)[C@H]4O[C@@H]4O[C@H](CO)[C@@H](O)[C@H](O)[C@H]4O)C(C)(C)[C@@H]3CC[C@]12C [Rd, ginsenoside Rd]	converted into F2	–	–
CCCCCCCCCCCCOS(=O)(=O)[O-].[Na+] [SDS]	–	–	effect on the enzymatic activity [3]: inhibitory effect
O=[N+]([O-])c1ccccc1O[C@@H]1O[C@H](CO)[C@@H](O)[C@H](O)[C@H]1O [oNP-β-D-glucopyranoside, o-nitrophenol[ONP]-β-D-glucopyranoside]	–	higher activity in this order	–
O=[N+]([O-])c1ccc(O[C@@H]2O[C@H](CO)[C@@H](O)[C@H](O)[C@H]2O)cc1 [pNPGlc, p-nitrophenyl-β-D-glucopyranoside]	–	higher activity in this order	Vmax for the hydrolysis of pNPGlc by ginsenoside glycosidase [4]: 0.3177(±0.01654) mmol*min−1*mg of protein-1
B1	–	–	pH of highest activity [5]: 7.0; temperature of maximum activity [6]: 40-55 °C
